Series [1] deals with Herpes Simplex Virus Type II Strain 333 (HSV-2 333). The series is described as follows: Anti-HSV-2 activity by CPE method. The class given is cell-based. Conditions: HSV-2, Vero, 48 hours. From the text: (§1) In this example, the Vero cell line (ATCC CCL81, purchased from ATCC, US) was used as the normal cell. […] The cytopathic effect (CPE) was then observed under an optical microscope.

Series [2] shares this test system. Put plainly: Plaque reduction assay (PRA), HSV-2. The class given is cell-based. Conditions: for IC50: Human alphaherpesvirus 2, plaque reduction, Vero, n = 3, read-out: Antiviral activity HSV-2 IC50. How it is done: (§2) In this example, the Vero cell line (ATCC CCL81, purchased from ATCC, US) was used as the normal cell.
(§3) The Vero cells were cultured to a monolayer on 24 well plates. […] The virus solutions were suck out and discarded. […] After observing for 72 hours, they were fixed for 30 minutes with 10% formaldehyde, stained for 30 minutes with 1% crystal violet, rinsed with water, and dried. The plaques were counted with reference to Nitta's method, and the plaque inhibition rate was calculated.
(§4) A curve graph was plotted with the logarithmic value of the drug concentration as the horizontal coordinate, and the plaque inhibition rate as the vertical coordinate.
A general note: Plaque reduction counts the foci of infection that form in a cell layer.

Series [3] concerns Herpes Simplex Virus Type I Strain F (HSV-1 F). Put plainly: Plaque reduction assay (PRA), HSV-1. The series is classed as cell-based. The following applies: for IC50: Human alphaherpesvirus 1, plaque reduction, Vero, n = 3, read-out: Antiviral activity HSV-1 IC50. How it is done:
as §2, §3, §4

For series [4], the system named is human breast cancer cells (MCF-7). The series is described as follows: MTT proliferation inhibition, MCF-7.
The subject of series [5] is human malignant melanoma cells (A375). The series is described as follows: MTT proliferation inhibition, A375.
The subject of series [6] is human laryngeal epithelial cancer cells (Hep-2). The series is described as follows: MTT proliferation inhibition, Hep-2.
Series [7] has as its system Vero cells. Put plainly: in vitro. On the procedure: (§5) The cells were cultured overnight, and the culture solutions were discarded. […] Then the Vero cells were incubated for an additional 48 hours. The ATP levels in the Vero cells and the AK release quantity in the supernatant of the culture solutions were determined using kits from Lonza, US (Vialight HS kit and Toxilight bioassay kit). The maximum non-toxic concentration of the drug on the Vero cells within 48 hours were then assayed. The positive drug 17-AAG was used as control in the experiment (starting from 10 μM, double dilution of 6 concentrations).

The test system of series [8] is human chronic myeloid leukemia cells (K562). The series is described as follows: MTT proliferation inhibition, K562.
Series [9] deals with human cervical carcinoma cells (Hela). Put plainly: MTT proliferation inhibition, Hela.
Series [10] relates to Hsp90. The following applies: background statement; cited from earlier work.
Series [11] concerns Herpes Simplex Virus Type 1 Strain F (HSV-1 F). Put plainly: Anti-HSV-1 activity by CPE method. The series is classed as cell-based. The following applies: HSV-1, Vero, 48 hours.
From the text: as §1

The nature of series [12]: in vitro. Conditions: African green monkey. On the procedure:
as §5

One may read the IC50 as the concentration that gives 50% inhibition. For `Nc1nc2c(ncn2COCCO)c(=O)[nH]1` [ACV, Acyclovir, reference compound], the CPE entry in [1] (0.16 μM) and in [1] (0.31 μM) was “++ (26%-50% ++)” throughout. The half-inhibitory concentration (IC50) in series [2] was found to be 3.32 ± 0.44 µM; in [3], 4.16 ± 1.02 µM.
On to `C=CCNC1=C2C[C@@H](C)C[C@H](OC)[C@H](O)[C@@H](C)/C=C(\C)[C@H](OC(N)=O)[C@@H](OC)/C=C\C=C(/C)C(=O)NC(=CC1=O)C2=O` [Compound 17-AAG, 17-allylaminogeldanamycin, reference compound], for which the half-inhibitory concentration (IC50) in series [4] (MCF-7, MTT, 48 hours) was 3.24 ± 0.15 µM; in series [5] (A375, MTT, 48 hours) it was 3.13 ± 0.15 µM; in series [6] (Hep-2, MTT, 48 hours), 2.33 ± 0.3 µM; in series [8] (K562, MTT, 48 hours), 2.43 ± 0.68 µM; in series [9] (Hela, MTT, 48 hours), 5.42 ± 0.18 µM. In series [7] (Vero cells, 48 hours), this molecule yielded a maximum non-toxic concentration of 0.63 µM.
Turning to `CO[C@@H]1[C@@H](OC(N)=O)[C@@H](O)[C@H](Oc2ccc3c(O)c(NC(=O)c4ccc(O)c(CC=C(C)C)c4)c(=O)oc3c2C)OC1(C)C` [Novobiocin], the “concentration used as an inhibitor of Hsp90” value in [10] is “up to 700 μM”.
Take `CC(=O)OC(CC(=O)OC1CCC(Nc2cc(-n3nc(C)c4c3CC(C)(C)CC4=O)ccc2C(N)=O)CC1)C[N+](C)(C)C.[Cl-]` (stereo not shown) [Xbj-B16-1, 2-(4-(3-acetylcarnitineacyloxy)cyclohexylamino)-4-(1-(3,6,6-trimethyl-4-oxy-4,5,6,7-terahydroindazole))benzamide]: the CPE result in series [11] (0.39 μM) is listed as “++++ (76%-100% ++++)”; in [11] (0.78 μM) it was “++++ (76%-100% ++++)”; in [11] (1.56 μM), “++++ (76%-100% ++++)”; in series [11] (3.13 μM), “+++ (51%-75% +++)”; in [11] (6.25 μM), “++ (26%-50% ++)”; in series [1] (0.39 μM), “++++ (76%-100% ++++)”. Besides, the CPE result in [1] (0.78 μM) was “++++ (76%-100% ++++)”; in series [1] (1.56 μM) it was “++++ (76%-100% ++++)”; in series [1] (3.13 μM), “+++ (51%-75% +++)”; in series [1] (6.25 μM), “+++ (51%-75% +++)”; in series [1] (12.5 μM) it was “+ (0-25% +)”. Besides, the IC50 amounted to 9.53 ± 2.03 µM in series [4] (Homo sapiens, MCF7, 48 h); 7.23 ± 1.31 µM in [5] (Homo sapiens, A-375, 48 h); 6.37 ± 2.13 µM in [6] (Homo sapiens, HEp-2, 48 h); 3.2 ± 0.33 µM in series [2]; 8.31 ± 1.78 µM in series [8] (Homo sapiens, K562, 48 h); 2.96 ± 0.56 µM in series [3]. In addition, in [9] (Homo sapiens, HeLa, 48 h), the half-inhibitory concentration (IC50) came to 10.3 ± 2.48 µM. Also, the CC50 at 48 h in series [12] came to 47.8 ± 3.53 µM. For the same molecule, the “Toxity TC0 (the maximum non-toxic concentration)” value in [7] (African green monkey, 48 h) came to 12.5 µM. Besides, the maximum non-toxic concentration in series [7] (African green monkey, 48 h) came out at 12.5 µM. In [2] (TC50/IC50), the “HSV-2 TI (therapeutic index, TC50/IC50)” value was 14.93. In [3] (TC50/IC50), the “HSV-1 TI (therapeutic index, TC50/IC50)” value turned out to be 16.14.

The values are drawn from patent US9630925B2, “HSP90 inhibitor and preparation method and use thereof” (priority 2010, dated 2017).
